Experimental data reported in US20260250290A1 (BRISTOL-MYERS SQUIBB COMPANY, priority 2023, published 2026).
Structures can show the parent of a compound that is named as a salt.

Biological target: T1, full length SGK1 (Homo sapiens, UniProt O00141)
T1 construct: 125 μM full length SGK1 (Life Technologies Part #PR7358A); purchased Life Technologies PR7358A
T1 sequence (O00141 1-431): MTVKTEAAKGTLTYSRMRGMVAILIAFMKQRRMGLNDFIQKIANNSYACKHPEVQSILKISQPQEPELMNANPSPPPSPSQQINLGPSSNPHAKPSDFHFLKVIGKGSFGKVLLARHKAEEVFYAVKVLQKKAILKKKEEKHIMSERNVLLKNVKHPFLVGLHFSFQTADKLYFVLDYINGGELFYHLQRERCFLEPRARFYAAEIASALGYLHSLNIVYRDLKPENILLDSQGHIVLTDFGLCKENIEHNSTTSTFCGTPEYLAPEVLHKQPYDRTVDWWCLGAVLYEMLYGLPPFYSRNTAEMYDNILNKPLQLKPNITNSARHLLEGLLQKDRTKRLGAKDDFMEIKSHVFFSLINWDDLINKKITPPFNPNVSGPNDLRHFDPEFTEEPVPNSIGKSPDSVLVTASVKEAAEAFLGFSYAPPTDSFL
Experiment: SGK1 inhibition Assay A (Caliper LabChip electrophoretic separation of fluorescent peptide substrate and phosphorylated product)
Type: biochemical
Conditions: Assay A; 20 μM ATP, 40 min incubation; read-out: SGK1 IC50

IC50	Compound
7 nM	NCC(=O)N1CC=C(c2cc(N3CCC[C@@H](NC(=O)c4ccc(Cl)s4)C3)c3c(N)ncnn23)C1 [Example 881, (R)-N-(1-(4-amino-7-(1-glycyl-2,5-dihydro-1H-pyrrol-3-y1)pyrrolo[2,1-f][1,2,4]triazin-5-yl)piperidin-3-y1)-5-chlorothiophene-2-carboxamide]
18 nM	COC(=O)N1CC=C(c2cc(N3CCC[C@@H](NC(=O)c4sc(Cl)cc4OCCN4CCC(F)(F)CC4)C3)c3c(N)ncnn23)C1 [Example 284, methyl (R)-3-(4-amino-5-(3-(5-chloro-3-(2-(4,4-difluoropiperidin-1-yl)ethoxy)thiophene-2-carboxamido)piperidin-1-yl)pyrrolo[2,1-f][1,2,4]triazin-7-yl)-2,5-dihydro-1H-pyrrole-1-carboxylate]
4 nM	CC(=O)N1CC=C(c2cc(N3CCC[C@@H](NC(=O)c4sc(Cl)cc4OCCN(C)C)C3)c3c(N)ncnn23)C1 [Example 175, (R)—N-(1-(7-(1-acetyl-2,5-dihydro-1H-pyrrol-3-yl)-4-aminopyrrolo[2,1-f][1,2,4]triazin-5-yl)piperidin-3-yl)-5-chloro-3-(2-(dimethylamino)ethoxy)thiophene-2-carboxamide, 2 TFA]
6 nM	Nc1ncnn2c(-c3ccc(S(=O)(=O)C4CC4)cc3)cc(N3CCC[C@@H](NC(=O)c4ccc(Cl)s4)C3)c12 [Example 228, N-[(3R)-1-{4-amino-7-[4-(cyclopropanesulfonyl)phenyl]pyrrolo[2,1-f][1,2,4]triazin-5-yl}piperidin-3-yl]-5-chlorothiophene-2-carboxamide, TFA]
0.5 nM	NC(=O)c1ccc(-c2cc(N3CCC[C@@H](NC(=O)c4sc(Cl)cc4OC4CC5(CNC5)C4)C3)c3c(N)ncnn23)cn1 [Example 592, (R)-5-(5-(3-(3-((2-azaspiro[3.3]heptan-6-yl)oxy)-5-chlorothiophene-2-carboxamido)piperidin-1-yl)-4-aminopyrrolo[2,1-f][1,2,4]triazin-7-yl)picolinamide]
261 nM	COC(=O)N1CC=C(c2cc(N3CCC[C@@H](NC(=O)c4n[nH]c5ccc(C#N)cc45)C3)c3c(N)ncnn23)C1 [Example 684, methyl (R)-3-(4-amino-5-(3-(5-cyano-1H-indazole-3-carboxamido)piperidin-1-yl)pyrrolo[2,1-f][1,2,4]triazin-7-yl)-2,5-dihydro-1H-pyrrole-1-carboxylate]
4 nM	CC(=O)N1CC=C(c2cc(N3CCC[C@@H](NC(=O)c4sc(Cl)cc4OC4CCNCC4F)C3)c3c(N)ncnn23)C1 (stereo partly drawn) [Example 601, N-((R)-1-(7-(1-acetyl-2,5-dihydro-1H-pyrrol-3-yl)-4-aminopyrrolo[2,1-f][1,2,4]triazin-5-yl)piperidin-3-y1)-5-chloro-3-((3-fluoropiperidin-4-yl)oxy)thiophene-2-carboxamide]
233 nM	CC(C)(O)c1ccc(-c2cc(N3CCC[C@@H](NC(=O)c4ccc(Cl)s4)C3)c3c(N)ncnn23)cc1 [Example 218, (R)-N-(1-(4-amino-7-(4-(2-hydroxypropan-2-yl)phenyl)pyrrolo[2,1-f][1,2,4]triazin-5-yl)piperidin-3-yl)-5-chlorothiophene-2-carboxamide, TFA]
79 nM	CC(=O)N1CC=C(c2cc(N3CCC[C@@H](NC(=O)c4ccnc(N5CC6(C5)CN(C(C)C)C6)n4)C3)c3c(N)ncnn23)C1 [Example 752, (R)-N-(1-(7-(1-acetyl-2,5-dihydro-1H-pyrrol-3-yl)-4-aminopyrrolo[2,1-f][1,2,4]triazin-5-yl)piperidin-3-yl)-2-(6-isopropyl-2,6-diazaspiro[3.3]heptan-2-yl)pyrimidine-4-carboxamide]
7 nM	CC(=O)N1CC=C(c2cc(N3CCC[C@@H](NC(=O)c4cccc(N5CC[C@@H](O)C5)n4)C3)c3c(N)ncnn23)C1 [Example 770, N-((R)-1-(7-(1-acetyl-2,5-dihydro-1H-pyrrol-3-yl)-4-aminopyrrolo[2,1-f][1,2,4]triazin-5-yl)piperidin-3-yl)-6-((R)-3-hydroxypyrrolidin-1-yl)picolinamide]
8 nM	CC1CC(Oc2cc(Cl)sc2C(=O)NC2CCCN(c3cc(-c4cncnc4)n4ncnc(N)c34)C2)CCN1 (single isomer, unassigned) [Example 626]
2 nM	COC(=O)N1CC=C(c2cc(N3CCC[C@@H](NC(=O)c4sc(Cl)cc4OC4CCN(C)CC4)C3)c3c(N)ncnn23)C1 [Example 562, methyl (R)-3-(4-amino-5-(3-(5-chloro-3-((1-methylpiperidin-4-yl)oxy)thiophene-2-carboxamido)piperidin-1-yl)pyrrolo[2,1-f][1,2,4]triazin-7-yl)-2,5-dihydro-1H-pyrrole-1-carboxylate]
64 nM	Nc1ncnn2c(-c3cccc(Cl)c3)cc(N3CCC[C@@H](NC(=O)c4ccc(Cl)s4)C3)c12 [Example 234]
1 nM	(R)-N-(1-(4-amino-7-(1-(isoxazole-3-carbonyl)-2,5-dihydro-1H-pyrrol-3-yl)pyrrolo[2,1-f|[1,2,4]triazin-5-yl)piperidin-3-y1)-5-chloro-3-(2-(dimethylamino)ethoxy)thiophene-2-carboxamide [Example 906]
10 nM	Nc1ncnn2c(C3=CCN(C(=O)[C@@H]4CCNC4)C3)cc(N3CCC[C@@H](NC(=O)c4ccc(Cl)s4)C3)c12 [Example 896, N-((R)-1-(4-amino-7-(1-((R)-pyrrolidine-3-carbonyl)-2,5-dihydro-1H-pyrrol-3-yl)pyrrolo[2,1-f][1,2,4]triazin-5-yl)piperidin-3-y1)-5-chlorothiophene-2-carboxamide, TFA]
7 nM	Nc1ncnn2c(C3=CCN(C(=O)C4CCCOC4)C3)cc(N3CCC[C@@H](NC(=O)c4ccc(Cl)s4)C3)c12 (stereo partly drawn) [Example 893, N-((3R)-1-(4-amino-7-(1-(tetrahydro-2H-pyran-3-carbony1)-2,5-dihydro-1H-pyrrol-3-yl)pyrrolo[2,1-f][1,2,4]triazin-5-y1)piperidin-3-y1)-5-chlorothiophene-2-carboxamide]
8 nM	Nc1ncnn2c(C3=CCN(C(=O)c4ncco4)C3)cc(N3CCC[C@@H](NC(=O)c4ccc(Cl)s4)C3)c12 [Example 887, (R)-N-(1-(4-amino-7-(1-(oxazole-2-carbonyl)-2,5-dihydro-1H-pyrrol-3-y1)pyrrolo[2,1-f][1,2,4]triazin-5-y1)piperidin-3-y1)-5-chlorothiophene-2-carboxamide]
10 nM	COC(=O)N1CC=C(c2cc(N3CCC[C@@H](NC(=O)c4sc(C(F)F)cc4OC4CCN(C(C)C)CC4)C3)c3c(N)ncnn23)C1 [Example 441, Methyl (R)-3-(4-amino-5-(3-(5-(difluoromethyl)-3-((1-isopropylpiperidin-4-yl)oxy)thiophene-2-carboxamido)piperidin-1-yl)pyrrolo[2,1-f][1,2,4]triazin-7-yl)-2,5-dihydro-1H-pyrrole-1-carboxylate]
4 nM	CC(=O)N1CC=C(c2cc(N3CCCC(NC(=O)c4sc(Cl)cc4OC4CCNC(C)C4)C3)c3c(N)ncnn23)C1 (single isomer, unassigned) [Example 623]

Compound	IC50
CC(C)n1nccc1-c1cc(N2CCC[C@@H](NC(=O)c3cccc(N4CCN(C)CC4)n3)C2)c2c(N)ncnn12 [Example 796, (R)-N-(1-(4-amino-7-(1-isopropyl-1H-pyrazol-5-yl)pyrrolo[2,1-f][1,2,4]triazin-5-yl)piperidin-3-yl)-6-(4-methylpiperazin-1-yl)picolinamide]	785 nM
